Activity calls are given as the source filed them. No cut-off for these calls is given here.
Tests used:
[1] = biological target: T1, Vitamin D3 receptor (Homo sapiens) (UniProt P11473); experiment: Agonist activity at VDR (unknown origin) transfected in human HepG2 cells co-transfected with renilla reniformis luciferase reporter at 10 uM incubated for 24 hrs by dual-luciferase reporter gene assay; type: cell-based
T1 sequence (whole entry): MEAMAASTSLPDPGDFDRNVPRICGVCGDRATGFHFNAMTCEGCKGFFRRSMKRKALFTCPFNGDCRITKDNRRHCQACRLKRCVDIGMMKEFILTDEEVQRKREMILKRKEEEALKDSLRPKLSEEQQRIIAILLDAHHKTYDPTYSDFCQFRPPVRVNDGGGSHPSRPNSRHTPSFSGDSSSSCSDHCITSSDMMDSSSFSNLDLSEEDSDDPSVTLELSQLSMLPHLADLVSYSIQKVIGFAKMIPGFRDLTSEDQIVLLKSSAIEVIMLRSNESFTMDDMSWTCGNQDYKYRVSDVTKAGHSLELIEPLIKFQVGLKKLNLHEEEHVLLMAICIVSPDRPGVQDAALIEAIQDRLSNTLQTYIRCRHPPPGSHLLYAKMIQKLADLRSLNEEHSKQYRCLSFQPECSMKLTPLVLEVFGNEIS

[2] = biological target: T2, Peroxisome proliferator-activated receptor alpha (Homo sapiens) (UniProt Q07869); experiment: Agonist activity at PPARalpha (unknown origin) transfected in human HepG2 cells co-transfected with renilla reniformis luciferase reporter at 10 uM incubated for 24 hrs by dual-luciferase reporter gene assay; type: cell-based
T2 sequence (whole entry): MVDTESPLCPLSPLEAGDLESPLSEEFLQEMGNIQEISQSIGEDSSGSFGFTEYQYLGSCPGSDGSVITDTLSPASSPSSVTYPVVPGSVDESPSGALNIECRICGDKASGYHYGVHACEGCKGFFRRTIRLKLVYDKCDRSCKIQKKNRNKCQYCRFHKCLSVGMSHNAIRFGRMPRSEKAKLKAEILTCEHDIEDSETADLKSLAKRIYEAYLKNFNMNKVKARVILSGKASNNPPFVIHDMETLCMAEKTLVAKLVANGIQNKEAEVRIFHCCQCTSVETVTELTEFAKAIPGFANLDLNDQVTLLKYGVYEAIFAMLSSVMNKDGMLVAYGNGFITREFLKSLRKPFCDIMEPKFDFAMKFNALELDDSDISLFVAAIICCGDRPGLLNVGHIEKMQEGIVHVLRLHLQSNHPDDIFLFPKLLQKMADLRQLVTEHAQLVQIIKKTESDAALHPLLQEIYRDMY

[3] = biological target: T3, Estrogen receptor (Homo sapiens) (UniProt P03372); experiment: Agonist activity at ERalpha (unknown origin) transfected in human HepG2 cells co-transfected with renilla reniformis luciferase reporter at 10 uM incubated for 24 hrs by dual-luciferase reporter gene assay; type: cell-based
T3 sequence (whole entry): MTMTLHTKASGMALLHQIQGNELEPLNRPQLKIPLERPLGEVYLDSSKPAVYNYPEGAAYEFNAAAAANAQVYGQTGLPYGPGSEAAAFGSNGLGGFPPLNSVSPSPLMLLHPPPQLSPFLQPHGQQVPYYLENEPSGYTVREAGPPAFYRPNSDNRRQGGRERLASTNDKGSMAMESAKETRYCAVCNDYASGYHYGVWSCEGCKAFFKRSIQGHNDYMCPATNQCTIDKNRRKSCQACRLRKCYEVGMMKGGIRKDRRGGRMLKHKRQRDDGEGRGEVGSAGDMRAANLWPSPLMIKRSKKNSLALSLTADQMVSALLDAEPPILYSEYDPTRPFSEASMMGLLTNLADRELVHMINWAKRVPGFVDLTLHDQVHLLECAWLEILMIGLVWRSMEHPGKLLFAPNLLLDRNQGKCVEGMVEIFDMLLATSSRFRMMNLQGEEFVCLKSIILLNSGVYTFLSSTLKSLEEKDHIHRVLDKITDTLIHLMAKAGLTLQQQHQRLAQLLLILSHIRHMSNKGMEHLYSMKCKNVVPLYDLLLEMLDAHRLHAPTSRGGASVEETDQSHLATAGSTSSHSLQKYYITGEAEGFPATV

[4] = biological target: Estrogen receptor beta (Homo sapiens) (UniProt Q92731); experiment: Agonist activity at ERbeta (unknown origin) transfected in human HepG2 cells co-transfected with renilla reniformis luciferase reporter at 10 uM incubated for 24 hrs by dual-luciferase reporter gene assay; type: cell-based
Sequence of Estrogen receptor beta (Homo sapiens) (Q92731 whole entry): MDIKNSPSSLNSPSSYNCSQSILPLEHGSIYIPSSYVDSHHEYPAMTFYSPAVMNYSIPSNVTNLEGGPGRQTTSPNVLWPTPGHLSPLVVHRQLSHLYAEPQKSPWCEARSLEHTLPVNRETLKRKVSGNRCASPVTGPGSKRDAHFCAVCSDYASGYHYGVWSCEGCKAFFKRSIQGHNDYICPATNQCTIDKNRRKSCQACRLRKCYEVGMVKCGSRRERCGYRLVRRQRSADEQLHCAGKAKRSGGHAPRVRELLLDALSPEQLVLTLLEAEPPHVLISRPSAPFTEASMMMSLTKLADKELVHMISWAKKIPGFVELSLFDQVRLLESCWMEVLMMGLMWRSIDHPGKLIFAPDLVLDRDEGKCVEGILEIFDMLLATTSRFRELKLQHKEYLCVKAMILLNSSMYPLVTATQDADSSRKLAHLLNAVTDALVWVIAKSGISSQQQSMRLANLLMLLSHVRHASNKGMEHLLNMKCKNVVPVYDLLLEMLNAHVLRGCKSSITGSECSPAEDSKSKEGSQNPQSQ

[5] = biological target: T4, Aryl hydrocarbon receptor (Homo sapiens, UniProt P35869); experiment: Agonist activity at AhR (unknown origin) transfected in human HepG2 cells co-transfected with renilla reniformis luciferase reporter at 10 uM incubated for 24 hrs by dual-luciferase reporter gene assay; type: cell-based; details: hepg2, 24 h
T4 sequence (P35869 whole entry): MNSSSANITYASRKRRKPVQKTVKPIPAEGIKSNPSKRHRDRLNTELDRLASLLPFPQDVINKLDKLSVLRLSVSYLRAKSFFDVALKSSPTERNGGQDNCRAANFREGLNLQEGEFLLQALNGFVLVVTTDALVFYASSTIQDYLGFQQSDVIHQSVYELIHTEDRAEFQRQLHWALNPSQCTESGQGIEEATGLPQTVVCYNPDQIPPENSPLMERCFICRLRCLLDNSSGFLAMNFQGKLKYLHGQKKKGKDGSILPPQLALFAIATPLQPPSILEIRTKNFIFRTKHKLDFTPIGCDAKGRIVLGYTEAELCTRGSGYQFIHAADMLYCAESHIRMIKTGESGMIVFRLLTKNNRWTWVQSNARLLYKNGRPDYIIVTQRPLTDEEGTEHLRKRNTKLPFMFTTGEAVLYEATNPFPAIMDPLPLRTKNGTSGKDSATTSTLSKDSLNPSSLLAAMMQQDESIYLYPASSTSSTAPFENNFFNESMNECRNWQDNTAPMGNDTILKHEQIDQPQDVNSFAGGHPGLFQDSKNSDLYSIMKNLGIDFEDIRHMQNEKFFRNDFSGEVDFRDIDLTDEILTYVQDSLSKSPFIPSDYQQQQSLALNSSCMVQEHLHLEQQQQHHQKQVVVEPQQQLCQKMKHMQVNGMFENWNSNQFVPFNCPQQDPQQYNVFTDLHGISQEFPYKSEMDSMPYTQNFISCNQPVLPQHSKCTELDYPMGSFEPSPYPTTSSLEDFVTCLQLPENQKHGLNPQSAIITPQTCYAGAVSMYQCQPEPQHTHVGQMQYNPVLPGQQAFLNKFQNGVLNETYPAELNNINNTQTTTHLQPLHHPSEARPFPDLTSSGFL

Hep 3B2 = experiment: Antiproliferative activity against human Hep3B cells assessed as reduction in cell viability at 0.01 to 100 uM measured after 5 days in presence of sorafenib and sodium oleate by CellTiter-Glo assay; type: functional, cell-based; details: dose 0.01-100 µM, time 5.0 day
AML12 = experiment: Cytotoxicity against mouse AML12 cells assessed as reduction in cell viability at 0.01 to 100 uM measured after 5 days in presence of sorafenib by CellTiter-Glo assay; type: toxicity, cell-based; details: aml12, 120 h, dose 0.01-100 µM, time 5 day

O=C1C(Nc2ccc(N3CCCCC3)cc2)=C(c2ccccc2)C(=O)N1Cc1ccccc1
Activity [1]: inactive | Activity [2]: inactive | Activity [3]: inactive | Activity [4]: inactive | Activity [5]: Not_active | Activity (Hep 3B2): inactive | Activity (AML12): Toxic

Source: ChEMBL document CHEMBL6115048, “Uncovering α-Selectivity for Liver X Receptor Agonists for Lipotoxic Cancer Therapies” (J Med Chem, 2025)
